Assay results reported in patent US9708316B2 (BRISTOL-MYERS SQUIBB COMPANY, priority 2014, dated 2017).

Tests used:
HIS-TGFβR1 T204D = biological target: T1, HIS-TGFβR1 T204D (Homo sapiens, UniProt P36897, T204D); test: HTRF probe-displacement assay, HIS-TGFβR1 T204D; assay type: binding; conditions: read-out: TGFβR1 (μM) IC50
T1 sequence (P36897 34-503 T204D): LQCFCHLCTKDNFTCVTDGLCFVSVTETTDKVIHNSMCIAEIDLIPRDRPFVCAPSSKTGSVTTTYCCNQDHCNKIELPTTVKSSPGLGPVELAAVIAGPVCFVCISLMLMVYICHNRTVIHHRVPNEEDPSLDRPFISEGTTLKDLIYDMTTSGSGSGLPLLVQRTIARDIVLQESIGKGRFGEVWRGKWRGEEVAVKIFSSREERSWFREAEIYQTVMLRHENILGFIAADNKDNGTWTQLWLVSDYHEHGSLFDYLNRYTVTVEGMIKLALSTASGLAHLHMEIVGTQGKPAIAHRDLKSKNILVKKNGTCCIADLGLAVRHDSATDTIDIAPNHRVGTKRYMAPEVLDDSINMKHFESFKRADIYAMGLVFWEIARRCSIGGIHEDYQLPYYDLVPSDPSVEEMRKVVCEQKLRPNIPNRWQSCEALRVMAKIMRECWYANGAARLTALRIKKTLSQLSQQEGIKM

HIS-TGFβR2 WT = HIS-TGFβR2 WT (Homo sapiens, UniProt P37173); test: HTRF probe-displacement assay, HIS-TGFβR2 WT; assay type: binding
HIS-TGFβR2 WT, sequence (P37173 23-567): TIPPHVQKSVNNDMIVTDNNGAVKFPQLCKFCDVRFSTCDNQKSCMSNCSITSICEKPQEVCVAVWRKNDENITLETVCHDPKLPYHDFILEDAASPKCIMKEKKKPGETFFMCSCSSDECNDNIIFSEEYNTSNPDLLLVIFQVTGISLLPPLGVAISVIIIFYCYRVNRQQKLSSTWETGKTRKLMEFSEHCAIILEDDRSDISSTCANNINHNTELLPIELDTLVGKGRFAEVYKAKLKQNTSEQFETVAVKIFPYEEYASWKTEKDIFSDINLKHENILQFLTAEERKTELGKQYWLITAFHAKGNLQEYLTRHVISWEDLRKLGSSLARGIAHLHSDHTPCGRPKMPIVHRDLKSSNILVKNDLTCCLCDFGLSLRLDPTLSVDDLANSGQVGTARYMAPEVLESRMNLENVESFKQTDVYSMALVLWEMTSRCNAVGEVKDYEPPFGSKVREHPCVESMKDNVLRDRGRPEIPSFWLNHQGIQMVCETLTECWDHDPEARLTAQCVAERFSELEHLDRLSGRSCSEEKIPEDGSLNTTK

| Compound | IC50 (HIS-TGFβR1 T204D) [µM] | IC50 (HIS-TGFβR2 WT) [µM] |
| --- | --- | --- |
| CC(=O)Nc1cc(-c2[nH]c3c(C(O)C(F)F)ccnc3c2-c2cccc(C(F)F)n2)ccn1 (stereo not shown) [Example 148, N-{4-[7-(2,2-Difluoro-1-hydroxyethyl)-3-[6-(difluoromethyl)pyridin-2-yl]-1H-pyrrolo[3,2-b]pyridin-2-yl]pyridin-2-yl}acetamide] | 0.001 | 0.484 |
| CC(=O)Nc1cc(-c2[nH]c3c(CN4CCN(C)CC4)ccnc3c2-c2cccc(C(F)F)n2)ccn1 [Example 139, N-(4-{3-[6-(Difluoromethyl)pyridin-2-yl]-7-[(4-methylpiperazin-1-yl)methyl]-1H-pyrrolo[3,2-b]pyridin-2-yl}pyridin-2-yl)acetamide] | 0.001 | 8.47 |
| CC(=O)Nc1cc(-c2[nH]c3cc(C)cnc3c2-c2nc(C#N)cs2)ccn1 [Example 224, N-(4-(3-(4-Cyanothiazol-2-yl)-6-methyl-1H-pyrrolo[3,2-b]pyridin-2-yl)pyridin-2-yl)acetamide] | 0.0012 | 0.544 |
| CC(=O)Nc1cc(-c2[nH]c3c(C)ccnc3c2-c2nc(C(F)F)cs2)ccn1 [Example 220, N-(4-(3-(4-(Difluoromethyl)thiazol-2-yl)-7-methyl-1H-pyrrolo[3,2-b]pyridin-2-yl)pyridin-2-yl)acetamide] | 0.0005 | 1.38 |
| O=C(CNCCCN1CCOCC1)Nc1cc(-c2[nH]c3cc(Cl)cnc3c2-c2ccc(F)cn2)ccn1 [Example 89, N-{4-[6-Chloro-3-(5-fluoropyridin-2-yl)-1H-pyrrolo[3,2-b]pyridin-2-yl]pyridin-2-yl}-2-{[3-(morpholin-4-yl)propyl]amino}acetamide] | 0.003 | 4.81 |
| CCCNCc1cnc2c(-c3ccc(OC)cn3)c(-c3ccnc(NC(C)=O)c3)[nH]c2c1 [Example 294, N-(4-(3-(5-methoxypyridin-2-yl)-6-((propylamino)methyl)-1H-pyrrolo[3,2-b]pyridin-2-yl)pyridin-2-yl)acetamide] | 0.063 | > 15 |
| CC(=O)Nc1cc(-c2[nH]c3c(C(F)F)ccnc3c2-c2cccc(C(F)F)n2)ccn1 [Example 149, N-{4-[7-(Difluoromethyl)-3-[6-(difluoromethyl)pyridin-2-yl]-1H-pyrrolo[3,2-b]pyridin-2-yl]pyridin-2-yl}acetamide] | 0.002 | 8.37 |
| CC(=O)Nc1cc(-c2[nH]c3cccnc3c2-c2nc(C)cs2)ccn1 [Example 199, N-(4-(3-(4-Methylthiazol-2-yl)-1H-pyrrolo[3,2-b]pyridin-2-yl)pyridin-2-yl)acetamide] | 0.0006 | 0.041 |
| COc1ccc(-c2c(-c3ccnc(NC(C)=O)c3)[nH]c3c(C(=O)NC(CO)CO)ccnc23)cn1 [Example 59, N-(1,3-Dihydroxypropan-2-yl)-2-(2-acetamidopyridin-4-yl)-3-(6-methoxypyridin-3-yl)-1H-pyrrolo[3,2-b]pyridine-7-carboxamide] | 0.021 | 6.37 |
| COc1ccc(-c2c(-c3ccnc(NC(C)=O)c3)[nH]c3cc(Br)cnc23)nc1 [Example 83, N-{4-[6-Bromo-3-(5-methoxypyridin-2-yl)-1H-pyrrolo[3,2-b]pyridin-2-yl]pyridin-2-yl}acetamide] | 0.002 | > 15 |
| COc1ccc(-c2c(-c3ccnc(NC(C)=O)c3)[nH]c3cc(Cl)cnc23)nc1Cl [Example 180, N-(4-(6-Chloro-3-(6-chloro-5-methoxypyridin-2-yl)-1H-pyrrolo[3,2-b]pyridin-2-yl)pyridin-2-yl)acetamide] | 0.0274 | > 15 |
| CCCc1ccnc2c(-c3cccc(C(F)F)n3)c(-c3ccnc(NC(C)=O)c3)[nH]c12 [Example 132, N-(4-{3-[6-(Difluoromethyl)pyridin-2-yl]-7-propyl-1H-pyrrolo[3,2-b]pyridin-2-yl}pyridin-2-yl)acetamide] | 0.001 | > 15 |
| COc1cnc2c(-c3cccc(C(F)F)n3)c(-c3ccnc(NC(C)=O)c3)[nH]c2c1 [Example 282, N-(4-(3-(6-(Difluoromethyl)pyridin-2-yl)-6-methoxy-1H-pyrrolo[3,2-b]pyridin-2-yl)pyridin-2-yl)acetamide] | 0.001 | 1.85 |
| COc1ccc(-c2c(-c3ccnc(NC(=O)CN4CCN(CCO)CC4)c3)[nH]c3cc(Cl)cnc23)cn1 [Example 235, N-(4-(6-Chloro-3-(6-methoxypyridin-3-yl)-1H-pyrrolo[3,2-b]pyridin-2-yl)pyridin-2-yl)-2-(4-(2-hydroxyethyl)piperazin-1-yl)acetamide] | 0.001 | 0.176 |
| CC(=O)Nc1cc(-c2[nH]c3cccnc3c2-c2ccc3cnccc3c2)ccn1 [Example 17, N-{4-[3-(Isoquinolin-6-yl)-1H-pyrrolo[3,2-b]pyridin-2-yl]pyridin-2-yl}acetamide] | 0.014 | > 15 |
| COc1ccc(-c2c(-c3ccnc(NC(C)=O)c3)[nH]c3cc(F)cnc23)nc1 [Example 39, N-{4-[6-Fluoro-3-(5-methoxypyridin-2-yl)-1H-pyrrolo[3,2-b]pyridin-2-yl]pyridin-2-yl}acetamide] | 0.002 | > 15 |
| CC(=O)Nc1cc(-c2[nH]c3cccnc3c2-c2cnn(C)c2)ccn1 [Example 187, N-(4-(3-(1-Methyl-1H-pyrazol-4-yl)-1H-pyrrolo[3,2-b]pyridin-2-yl)pyridin-2-yl)acetamide] | 0.0587 | 0.424 |
| COc1cccc(-c2c(-c3ccnc(NC(C)=O)c3)[nH]c3cc(Cl)cnc23)n1 [Example 65, N-{4-[6-Chloro-3-(6-methoxypyridin-2-yl)-1H-pyrrolo[3,2-b]pyridin-2-yl]pyridin-2-yl}acetamide] | 0.01 | > 15 |
| COc1cnc2c(-c3ncc(C)s3)c(-c3ccnc(NC(C)=O)c3)[nH]c2c1 [Example 209, N-(4-(6-Methoxy-3-(5-methylthiazol-2-yl)-1H-pyrrolo[3,2-b]pyridin-2-yl)pyridin-2-yl)acetamide] | 0.0009 | 0.218 |
| CC(=O)Nc1cc(-c2[nH]c3cc(Cl)cnc3c2-c2nc(C(F)(F)F)cs2)ccn1 [Example 175, N-(4-(6-Chloro-3-(4-(trifluoromethyl)thiazol-2-yl)-1H-pyrrolo[3,2-b]pyridin-2-yl)pyridin-2-yl)acetamide] | 0.0004 | > 15 |
| CC(=O)Nc1cc(-c2[nH]c3c(N4CCCC4)ccnc3c2-c2cccc(C(F)F)n2)ccn1 [Example 156, N-(4-{3-[6-(Difluoromethyl)pyridin-2-yl]-7-(pyrrolidin-1-yl)-1H-pyrrolo[3,2-b]pyridin-2-yl}pyridin-2-yl)acetamide] | 0.188 | > 15 |
| CC(=O)Nc1cc(-c2[nH]c3cc(Cl)cnc3c2-c2cccc(CO)n2)ccn1 [Example 67, N-(4-{6-Chloro-3-[6-(hydroxymethyl)pyridin-2-yl]-1H-pyrrolo[3,2-b]pyridin-2-yl}pyridin-2-yl)acetamide] | 0.037 | 0.36 |
| [2H]C([2H])([2H])Oc1ccc(-c2c(-c3ccnc(NC(C)=O)c3)[nH]c3cc(OC)cnc23)nc1 [Example 112, N-(4-(6-Methoxy-3-(5-(methoxy-d3)pyridin-2-yl)-1H-pyrrolo[3,2-b]pyridin-2-yl)pyridin-2-yl)acetamide] | 0.001 | 8.75 |
